We go through 23 compounds from patent US10301284B2, “Therapeutic inhibitory compounds” (LifeSci Pharmaceuticals, Inc., priority 2016, dated 2019).

The target of one experiment is human Plasma Kallikrein (Homo sapiens (Human), UniProt P03952). Nature of the experiment: In vitro enzyme inhibition of human plasma kallikrein (Pro-Phe-Arg-AMC cleavage). It is filed as biochemical.
Chain of human Plasma Kallikrein (P03952 391-638 limits assumed): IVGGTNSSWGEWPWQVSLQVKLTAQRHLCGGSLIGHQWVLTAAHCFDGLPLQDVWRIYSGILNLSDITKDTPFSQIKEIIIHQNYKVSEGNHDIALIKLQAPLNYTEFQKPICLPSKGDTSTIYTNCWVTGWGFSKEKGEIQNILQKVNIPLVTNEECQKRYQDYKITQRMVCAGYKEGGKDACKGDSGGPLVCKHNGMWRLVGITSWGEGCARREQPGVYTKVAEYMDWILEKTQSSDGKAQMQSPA
Chain of human Plasma Kallikrein (P03952 20-390 partner limits assumed): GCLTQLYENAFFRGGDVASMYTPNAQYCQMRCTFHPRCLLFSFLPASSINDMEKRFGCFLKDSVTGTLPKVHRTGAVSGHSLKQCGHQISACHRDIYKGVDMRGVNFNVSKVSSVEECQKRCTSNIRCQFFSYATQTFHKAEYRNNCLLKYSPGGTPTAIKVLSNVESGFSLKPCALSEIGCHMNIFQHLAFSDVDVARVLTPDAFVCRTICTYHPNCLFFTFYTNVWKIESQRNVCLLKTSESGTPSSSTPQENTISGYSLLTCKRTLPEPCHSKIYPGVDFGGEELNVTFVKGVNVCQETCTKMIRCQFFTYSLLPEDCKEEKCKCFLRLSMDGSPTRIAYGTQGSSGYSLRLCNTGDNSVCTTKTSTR
Settings: not given
How it is done:
The ability of the compounds disclosed herein to inhibit human plasma kallikrein activity was quantified according to the procedures below.
A 10 mM solution of the test compound was made in DMSO. This solution was serially diluted 1:5 in DMSO to yield 2000, 400, 80, 16, 3.2, 0.64, 0.128, 0.0256 and 0.00512 μM compound test solutions. A control tube containing only DMSO is included. 16 μL of each compound test solution was combined with 384 μL of assay buffer (50 mM Tris-HCl pH 7.5, 150 mM NaCl, 0.01% Triton X-100) to yield a “4× test compound buffer stock”.
Separately, a 40 nM solution of human Plasma Kallikrein (Abcam) and a 93.6 μM solution Pro-Phe-Arg-AMC (Bachem) were made using assay buffer. These solutions are hereby referred to as 4×hPK and 2×PFR-AMC, respectively.
60 μL of each 4× test compound buffer stock was combined with 60 μL of 4×hPK to yield 120 μL of “2× test compound buffer stock/2×hPK”. 50 μL was removed from this mixture and placed into duplicate wells on a Microfluor 1Black U-bottom microtiter plate (Thermo Scientific). This plate was incubated for 5 minutes at 37° C. To each well, 50 μL of pre-warmed 2×PFR-AMC was added to start the enzymatic reaction. Cleavage of PFR-AMC was monitored in a Biotek Synergy H4 reader set at 37° C. Readings are taken every 43 seconds for 1 hour. The highest mean velocity over 20 reads (˜15 minutes) is used to calculate the IC50. The IC50 is calculated using the Gen5 (Biotek Instruments).
The ability of the compounds listed in Table 2 to inhibit human plasma kallikrein activity was determined.
As a reminder, the IC50 is the concentration that inhibits the measured activity by half. Consider `Cc1cc(N)nc(C)c1CNC(=O)c1cn(Cc2ccc3ncc(Cl)cc3c2)c2ncnc(C#N)c12` [Example 136, N-((6-amino-2,4-dimethylpyridin-3-yl)methyl)-7-((3-chloroquinolin-6-yl)methyl)-4-cyano-7H-pyrrolo[2,3-d]pyrimidine-5-carboxamide], for which the IC50 is 100 to 1000 nM.

With `Cc1cc(N)nc(C)c1CNC(=O)c1cn(Cc2ccc3ncc(Cl)cc3c2)c2ncc(C#N)cc12` [Example 135, N-((6-amino-2,4-dimethylpyridin-3-yl)methyl)-1-((3-chloroquinolin-6-yl)methyl)-5-cyano-1H-pyrrolo[2,3-b]pyridine-3-carboxamide], the IC50 was in the range of 100 to 1000 nM.

`Cc1cc(N)nc(C)c1CNC(=O)c1nn(Cc2ccc3ncc(Cl)cc3c2)c2ccnc(Cl)c12` [Example 119, N-((6-amino-2,4-dimethylpyridin-3-yl)methyl)-4-chloro-1-((3-chloroquinolin-6-yl)methyl)-1H-pyrazolo[4,3-c]pyridine-3-carboxamide]: the IC50 was 100 to 1000 nM.

The experiment is the same for the next values; noted with them: human plasma kallikrein, PFR-AMC substrate, 37° C.; read-out: hPK IC50.
`Cc1cc(N)nc(C)c1CNC(=O)c1cn(Cc2ccc3ncc(Cl)cc3c2)c2ncnc(N)c12` [Example 34, 4-amino-7-(3-chloro-quinolin-6-ylmethyl)-7H-pyrrolo[2,3-d]pyrimidine-5-carboxylic acid (6-amino-2,4-dimethyl-pyridin-3-ylmethyl)-amide]: the IC50 is below 100 nM.

As to `Cc1cnc2c(C#N)cc(Cn3cc(C(=O)NCc4c(C)cc(N)nc4C)c(C(N)=O)n3)cc2c1` [Example 63, N4-((6-amino-2,4-dimethylpyridin-3-yl)methyl)-1-((8-cyano-3-methylquinolin-6-yl)methyl)-1H-pyrazole-3,4-dicarboxamide], the IC50 lay within 100 to 1000 nM.

For `Cc1cc(N)nc(C)c1CNC(=O)c1c2ccccc2nn1Cc1ccc2ncc(Cl)cc2c1` [Example 14, N-((6-amino-2,4-dimethylpyridin-3-yl)methyl)-2-((3-chloroquinolin-6-yl)methyl)-2H-indazole-3-carboxamide], the IC50 is above 10000 nM.

As to `Cc1nc(N)ccc1CNC(=O)c1nnc(Cc2ccc3ncc(Cl)cc3c2)[nH]1` [Example 97, N-((6-amino-2-methylpyridin-3-yl)methyl)-5-((3-chloroquinolin-6-yl)methyl)-4H-1,2,4-triazole-3-carboxamide], the IC50 was below 100 nM.

Take `Nc1nccc2cc(CNC(=O)c3nnc(Cc4ccc5ncc(Cl)cc5c4)o3)ccc12` [Example 46, N-((1-aminoisoquinolin-6-yl)methyl)-5-((3-chloroquinolin-6-yl)methyl)-1,3,4-oxadiazole-2-carboxamide]: the IC50 was 100 to 1000 nM.

Take `Cc1cc(N)nc(C)c1CNC(=O)c1nc(Br)n(Cc2ccc3ncc(Cl)cc3c2)n1` [Example 100, N-((6-amino-2,4-dimethylpyridin-3-yl)methyl)-5-bromo-1-((3-chloroquinolin-6-yl)methyl)-1H-1,2,4-triazole-3-carboxamide]: the IC50 was below 100 nM.

For the compound `Cc1cc(N)nc(C)c1CNC(=O)c1cn(Cc2ccc3ncc(Cl)cc3c2)c2ccccc12` [Example 11, N-((6-amino-2,4-dimethylpyridin-3-yl)methyl)-1-((3-chloroquinolin-6-yl)methyl)-1H-indole-3-carboxamide], the IC50 is below 100 nM.

With `Cc1cc(N)nc(C)c1CNC(=O)c1cnc(Cc2ccc3ncc(Cl)cc3c2)o1` [Example 89, N-((6-amino-2,4-dimethylpyridin-3-yl)methyl)-2-((3-chloroquinolin-6-yl)methyl)oxazole-5-carboxamide], the IC50 is below 100 nM.

For `Cc1cc(N)nc(C)c1CNC(=O)c1cnc(C(=O)c2ccc3ncc(Cl)cc3c2)o1` [Example 80, N-((6-amino-2,4-dimethylpyridin-3-yl)methyl)-2-(3-chloroquinoline-6-carbonyl)oxazole-5-carboxamide], the IC50 is above 10000 nM.

Consider `Cc1nc(N)ccc1CNC(=O)c1coc(Cc2ccc3ncc(Cl)cc3c2)n1` [Example 83, N-((6-amino-2-methylpyridin-3-yl)methyl)-2-((3-chloroquinolin-6-yl)methyl)oxazole-4-carboxamide], for which the IC50 was 100 to 1000 nM.

In the case of `Cc1cc(N)nc(C)c1CNC(=O)c1nnc(Cc2cc(C(C)(C)O)c3ncc(Cl)cc3c2)o1` [Example 86, N-((6-amino-2,4-dimethylpyridin-3-yl)methyl)-5-((3-chloro-8-(2-hydroxypropan-2-yl)quinolin-6-yl)methyl)-1,3,4-oxadiazole-2-carboxamide], the IC50 is below 100 nM.

As to `N#Cc1nn(Cc2ccc3ncc(Cl)cc3c2)cc1C(=O)NCc1cnc2[nH]cc(Cl)c2c1` [Example 50, N-((3-chloro-1H-pyrrolo[2,3-b]pyridin-5-yl)methyl)-1-((3-chloroquinolin-6-yl)methyl)-3-cyano-1H-pyrazole-4-carboxamide], the IC50 is 100 to 1000 nM.

`Cc1cc(N)nc(C)c1CNC(=O)c1cn(Cc2ccc3ncc(Cl)cc3c2)c2nc[nH]c(=O)c12` [Example 132, N-((6-amino-2,4-dimethylpyridin-3-yl)methyl)-7-((3-chloroquinolin-6-yl)methyl)-4-oxo-4,7-dihydro-3H-pyrrolo[2,3-d]pyrimidine-5-carboxamide]: the IC50 was above 10000 nM.

On to `Cc1nc(N)ccc1CNC(=O)c1ncc(Cc2ccc3ncc(Cl)cc3c2)o1` [Example 84, N-((6-amino-2-methylpyridin-3-yl)methyl)-5-((3-chloroquinolin-6-yl)methyl)oxazole-2-carboxamide], for which the concentration for half-maximal inhibition (IC50) was below 100 nM.

Turning to `Cc1cc(N)nc(C)c1CNC(=O)c1cnc(Cc2ccc3ncc(Cl)cc3c2)n1C` [Example 105, N-((6-amino-2,4-dimethylpyridin-3-yl)methyl)-2-((3-chloroquinolin-6-yl)methyl)-1-methyl-1H-imidazole-5-carboxamide], the half-inhibitory concentration (IC50) fell in the range of 1000 to 10000 nM.

On to `N#Cc1nn(Cc2ccc3ncc(Cl)cc3c2)cc1C(=O)NCc1ccc2c(N)nccc2c1` [Example 49, N-((1-aminoisoquinolin-6-yl)methyl)-1-((3-chloroquinolin-6-yl)methyl)-3-cyano-1H-pyrazole-4-carboxamide], for which the IC50 was below 100 nM.

As for `COc1cc2c(C(=O)NCc3c(C)cc(N)nc3C)cn(Cc3ccc4ncc(Cl)cc4c3)c2cn1` [Example 121, N-((6-amino-2,4-dimethylpyridin-3-yl)methyl)-1-((3-chloroquinolin-6-yl)methyl)-5-methoxy-1H-pyrrolo[2,3-c]pyridine-3-carboxamide], the IC50 was below 100 nM.

Turning to `Cc1cc(N)nc(C)c1CNC(=O)c1oc(Cc2ccc3ncc(Cl)cc3c2)nc1C#N` [Example 87, N-((6-amino-2,4-dimethylpyridin-3-yl)methyl)-2-((3-chloroquinolin-6-yl)methyl)-4-cyanooxazole-5-carboxamide], the IC50 is below 100 nM.

As for `Cc1cc(N)nc(C)c1CNC(=O)c1cn(Cc2ccc3ncc(Cl)cc3c2)c2cnc(Cl)cc12` [Example 117, N-((6-amino-2,4-dimethylpyridin-3-yl)methyl)-5-chloro-1-((3-chloroquinolin-6-yl)methyl)-1H-pyrrolo[2,3-c]pyridine-3-carboxamide], the IC50 was below 100 nM.

Turning to `N#Cc1nn(Cc2ccc3ncc(Cl)cc3c2)cc1C(=O)NCc1n[nH]c2ccc(Cl)cc12` [Example 48, N-((5-chloro-1H-indazol-3-yl)methyl)-1-((3-chloroquinolin-6-yl)methyl)-3-cyano-1H-pyrazole-4-carboxamide], the IC50 was 100 to 1000 nM.
